≈ marks a conversion by molar mass, not a printed value.

For the first test, the system named is K562/ADR (K562adr, drug-resistant chronic myeloid leukemia) cells. Nature of the test: MTT cell growth inhibition, leukemia cells. It is filed as cell-based. As to conditions: Homo sapiens; K562/ADR, 72 h, MTT; read-out: IC50. Put shortly:
(§1)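 MTT read-out of viable cells after 72 h compound exposure at 37° C., 5% CO2; 6000 cells/well in RPMI-1640 + 10% FBS, dosed one day after seeding over a range of concentrations.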
As usually defined, the IC50 is the midpoint of a concentration-inhibition curve. In the case of `COc1ccc2cc1Oc1ccc(cc1)C[C@H]1c3cc(c(OC)cc3CCN1C)Oc1c(OC(=O)c3ccc(N(C)C)cc3)c(OC)cc3c1[C@H](C2)N(C)CC3` [BS-FC-308], the IC50 was 0.08 µg/mL (≈ 0.106 µM).

The test is the same for the next values; noted with them: Homo sapiens; K562/ADR, 72 h, MTT; read-out: IC90.
Broadly, the IC90 is the point of the concentration-response curve where the effect stands at 90%. As to `COc1ccc2cc1Oc1ccc(cc1)C[C@H]1c3cc(c(OC)cc3CCN1C)Oc1c(OC(=O)c3ccc(N(C)C)cc3)c(OC)cc3c1[C@H](C2)N(C)CC3` [BS-FC-308], the IC90 was found to be 0.47 µg/mL (≈ 0.622 µM).

In the next test the test system is NB4 (acute promyelocytic leukemia) cells. Nature of the test: MTT cell growth inhibition, leukemia cells. It is filed as cell-based. As to conditions: Homo sapiens; NB4, 72 h, MTT; read-out: IC50. Put shortly: as §1
With `COc1ccc2cc1Oc1ccc(cc1)C[C@H]1c3cc(c(OC)cc3CCN1C)Oc1c(OC(=O)c3ccc(N(C)C)cc3)c(OC)cc3c1[C@H](C2)N(C)CC3` [BS-FC-308], the IC50 came out at 0.37 µg/mL (≈ 0.489 µM).

The test is the same for the next values; noted with them: Homo sapiens; NB4, 72 h, MTT; read-out: IC90.
Regarding `COc1ccc2cc1Oc1ccc(cc1)C[C@H]1c3cc(c(OC)cc3CCN1C)Oc1c(OC(=O)c3ccc(N(C)C)cc3)c(OC)cc3c1[C@H](C2)N(C)CC3` [BS-FC-308], the IC90 is 0.98 µg/mL (≈ 1.3 µM).

Another test concerns Becap-37 (human breast cancer) cells. Nature of the test: MTT cell growth inhibition, solid tumor cells. It is filed as cell-based. The settings on record: Homo sapiens; Becap-37, 72 h, MTT; read-out: IC50. In a few lines:
(§2)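 Human tumor cells seeded at 6000 per well grow 24 h in serum-supplemented (10% FBS) high-glucose DMEM. A 72 h incubation with graded compound doses at 37 °C follows, and MTT reports viable cell number.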
Turning to `COc1ccc2cc1Oc1ccc(cc1)C[C@H]1c3cc(c(OC)cc3CCN1C)Oc1c(OC(=O)c3ccc(N(C)C)cc3)c(OC)cc3c1[C@H](C2)N(C)CC3` [BS-FC-308], the IC50 worked out at 1.03 µg/mL (≈ 1.36 µM).

Staying with this test, now noted: Homo sapiens; Becap-37, 72 h, MTT; read-out: IC90.
For the compound `COc1ccc2cc1Oc1ccc(cc1)C[C@H]1c3cc(c(OC)cc3CCN1C)Oc1c(OC(=O)c3ccc(N(C)C)cc3)c(OC)cc3c1[C@H](C2)N(C)CC3` [BS-FC-308], the IC90 was 1.95 µg/mL (≈ 2.58 µM).

In a further test the test system is MG-63 (osteosarcoma) cells. Nature of the test: MTT cell growth inhibition, solid tumor cells. The class given is cell-based. The settings on record: Homo sapiens; MG-63, 72 h, MTT; read-out: IC50. In a few lines: as §2
For `COc1ccc2cc1Oc1ccc(cc1)C[C@H]1c3cc(c(OC)cc3CCN1C)Oc1c(OC(=O)c3ccc(N(C)C)cc3)c(OC)cc3c1[C@H](C2)N(C)CC3` [BS-FC-308], the IC50 worked out at 1.3 µg/mL (≈ 1.72 µM).

Still in this test, the particulars now being: Homo sapiens; MG-63, 72 h, MTT; read-out: IC90.
As for `COc1ccc2cc1Oc1ccc(cc1)C[C@H]1c3cc(c(OC)cc3CCN1C)Oc1c(OC(=O)c3ccc(N(C)C)cc3)c(OC)cc3c1[C@H](C2)N(C)CC3` [BS-FC-308], the IC90 was found to be 1.8 µg/mL (≈ 2.38 µM).

For a further test, the system named is Hep G2 (human liver cancer) cells. Nature of the test: MTT cell growth inhibition, solid tumor cells. As to conditions: Homo sapiens, HepG2; Hep G2, 72 h, MTT; read-out: IC50. It is filed as cell-based. In a few lines:
as §2
Regarding `COc1ccc2cc1Oc1ccc(cc1)C[C@H]1c3cc(c(OC)cc3CCN1C)Oc1c(OC(=O)c3ccc(N(C)C)cc3)c(OC)cc3c1[C@H](C2)N(C)CC3` [BS-FC-308], the IC50 came to 1.12 µg/mL (≈ 1.48 µM).

The same test, now with this note: Homo sapiens, HepG2; Hep G2, 72 h, MTT; read-out: IC90.
`COc1ccc2cc1Oc1ccc(cc1)C[C@H]1c3cc(c(OC)cc3CCN1C)Oc1c(OC(=O)c3ccc(N(C)C)cc3)c(OC)cc3c1[C@H](C2)N(C)CC3` [BS-FC-308]: the IC90 stood at 4.35 µg/mL (≈ 5.75 µM).

The test system of another test is U87-MG (malignant glioma) cells. Nature of the test: MTT cell growth inhibition, solid tumor cells. The class given is cell-based. As to conditions: Homo sapiens, U-87 MG; U87-MG, 72 h, MTT; read-out: IC50. In a few lines: as §2
As to `COc1ccc2cc1Oc1ccc(cc1)C[C@H]1c3cc(c(OC)cc3CCN1C)Oc1c(OC(=O)c3ccc(N(C)C)cc3)c(OC)cc3c1[C@H](C2)N(C)CC3` [BS-FC-308], the IC50 turned out to be 1.27 µg/mL (≈ 1.68 µM).

Staying with this test, now noted: Homo sapiens, U-87 MG; U87-MG, 72 h, MTT; read-out: IC90.
As to `COc1ccc2cc1Oc1ccc(cc1)C[C@H]1c3cc(c(OC)cc3CCN1C)Oc1c(OC(=O)c3ccc(N(C)C)cc3)c(OC)cc3c1[C@H](C2)N(C)CC3` [BS-FC-308], the concentration for an effect of 90% (IC90) amounted to 3.75 µg/mL (≈ 4.96 µM).

The next test relates to Hela (human cervical cancer) cells. Nature of the test: MTT cell growth inhibition, solid tumor cells. The class given is cell-based. As to conditions: Homo sapiens; Hela, 72 h, MTT; read-out: IC50. Put shortly: as §2
On to `COc1ccc2cc1Oc1ccc(cc1)C[C@H]1c3cc(c(OC)cc3CCN1C)Oc1c(OC(=O)c3ccc(N(C)C)cc3)c(OC)cc3c1[C@H](C2)N(C)CC3` [BS-FC-308], for which the IC50 was found to be 0.89 µg/mL (≈ 1.18 µM).

The test is the same for the next values; noted with them: Homo sapiens; Hela, 72 h, MTT; read-out: IC90.
Take `COc1ccc2cc1Oc1ccc(cc1)C[C@H]1c3cc(c(OC)cc3CCN1C)Oc1c(OC(=O)c3ccc(N(C)C)cc3)c(OC)cc3c1[C@H](C2)N(C)CC3` [BS-FC-308]: the 90% effect concentration (IC90) came out at 1.9 µg/mL (≈ 2.51 µM).

For the next test, the system named is RKO (human colon adenocarcinoma) cells. In words: MTT cell growth inhibition, solid tumor cells. The class given is cell-based. The settings on record: Homo sapiens; RKO, 72 h, MTT; read-out: IC50. Put shortly:
as §2
`COc1ccc2cc1Oc1ccc(cc1)C[C@H]1c3cc(c(OC)cc3CCN1C)Oc1c(OC(=O)c3ccc(N(C)C)cc3)c(OC)cc3c1[C@H](C2)N(C)CC3` [BS-FC-308]: the 50% inhibitory concentration (IC50) was 0.71 µg/mL (≈ 0.939 µM).

The test is the same for the next values; noted with them: Homo sapiens; RKO, 72 h, MTT; read-out: IC90.
For the compound `COc1ccc2cc1Oc1ccc(cc1)C[C@H]1c3cc(c(OC)cc3CCN1C)Oc1c(OC(=O)c3ccc(N(C)C)cc3)c(OC)cc3c1[C@H](C2)N(C)CC3` [BS-FC-308], the IC90 came out at 1.51 µg/mL (≈ 2 µM).

In the next test the test system is tumor. In words: Antitumor activity compared with fangchinoline, overall statement. It is filed as cell-based. The settings on record: tumor type not specified.
`COc1ccc2cc1Oc1ccc(cc1)C[C@H]1c3cc(c(OC)cc3CCN1C)Oc1c(OC(=O)c3ccc(N(C)C)cc3)c(OC)cc3c1[C@H](C2)N(C)CC3` [BS-FC-308]: the “antitumor activity compared with that of fangchinoline” value is “significantly superior”.

In the next test the test system is PANC-1 (pancreatic cancer) cells. Nature of the test: MTT cell growth inhibition, solid tumor cells. As to conditions: Homo sapiens; PANC-1, 72 h, MTT; read-out: IC50. It is filed as cell-based, human. In a few lines: as §2
For the compound `COc1ccc2cc1Oc1ccc(cc1)C[C@H]1c3cc(c(OC)cc3CCN1C)Oc1c(OC(=O)c3ccc(N(C)C)cc3)c(OC)cc3c1[C@H](C2)N(C)CC3` [BS-FC-308], the concentration for half-maximal inhibition (IC50) was determined as 2.38 µg/mL (≈ 3.15 µM).

For the origin of these results see patent US9328122B2, “7-substituted Hanfangichin B derivative, and preparation method and use thereof” (HANGZHOU BENSHENG PHARMACEUTICAL CO., LTD., priority 2012, dated 2016).
